From publication PMC11178787, “Development of a natural product optimization strategy for inhibitors against MraY, a promising antibacterial target” (Nature Communications, 2024)
≈ marks a conversion by molar mass, not a printed value. Where two headings read alike, the source gives them in different places.

Columns and labels:
[1] = test system: T1, E. faecalis(VRE) ATCC 51299; assay: microbe, parasite or virus in culture; parameters: CLSI broth microdilution MIC in MHB-II, single trial; settings: Enterococcus faecalis, 18 h
T1 construct: ATCC 51299 (VRE)
Procedure: (§1) MICs were determined by a microdilution broth method as recommended by the CLSI with MHB-II. For MICs of stable analogues, a 2-fold dilution of each compound was prepared in DMSO at 100-fold of the final concentration. The strains were inoculated with 5 × 10^5 cfu/mL in 96-well plates (each 100 μL/well), and 1 μL of DMSO solutions of the samples were added (contained less than 1% DMSO). The plates were incubated at 37 °C for 18 h and then MICs were determined. MICs of stable analogues in Table 1 were the highest value in three trials. MICs in Supplementary Table 1 were determined in one trial.

E. faecium ATCC 35667 = test system: T2, E. faecium ATCC 35667; assay: microbe, parasite or virus in culture; parameters: CLSI broth microdilution MIC in MHB-II, single trial; settings: Enterococcus faecium, ATCC35667, 18 h
T2 construct: ATCC 35667
Procedure: as §1

[2] = test system: T3, E. faecium(VRE) ATCC 51559; assay: microbe, parasite or virus in culture; parameters: CLSI broth microdilution MIC in MHB-II, single trial; settings: Enterococcus faecium, 18 h
T3 construct: ATCC 51559 (VRE)
Procedure: as §1

[3] = test system: T4, E. faecium(VRE) ATCC 51858; assay: microbe, parasite or virus in culture; parameters: CLSI broth microdilution MIC in MHB-II, single trial; settings: Enterococcus faecium, 18 h
T4 construct: ATCC 51858 (VRE)
Procedure: as §1

S. aureus ATCC 29213 = test system: T5, S. aureus ATCC 29213; assay: microbe, parasite or virus in culture; parameters: CLSI broth microdilution MIC in MHB-II, single trial; settings: Staphylococcus aureus, ATCC29213, 18 h
T5 construct: ATCC 29213
Procedure: as §1

[4] = test system: T6, Staphylococcus aureus MRSA JE2; assay: microbe, parasite or virus in culture; parameters: CLSI broth microdilution MIC in MHB-II, single trial; settings: 18 h
T6 construct: JE2 (MRSA)
Procedure: as §1

Enterococcus faecalis 21 = test system: T7, Enterococcus faecalis 21; assay: microbe, parasite or virus in culture; parameters: CLSI broth microdilution MIC in MHB-II; settings: Enterococcus faecalis, 21, 18 h, read-out: MIC
T7 construct: 21
Procedure: as §1

Enterococcus faecalis 22 = test system: T8, Enterococcus faecalis 22; assay: microbe, parasite or virus in culture; parameters: CLSI broth microdilution MIC in MHB-II; settings: Enterococcus faecalis, 22, 18 h, read-out: MIC
T8 construct: 22
Procedure: as §1

Enterococcus faecalis 24 = test system: T9, Enterococcus faecalis 24; assay: microbe, parasite or virus in culture; parameters: CLSI broth microdilution MIC in MHB-II; settings: Enterococcus faecalis, 24, 18 h, read-out: MIC
T9 construct: 24
Procedure: as §1

Enterococcus faecalis 25 = test system: T10, Enterococcus faecalis 25; assay: microbe, parasite or virus in culture; parameters: CLSI broth microdilution MIC in MHB-II; settings: Enterococcus faecalis, 25, 18 h, read-out: MIC
T10 construct: 25
Procedure: as §1

Enterococcus faecalis 27 = test system: T11, Enterococcus faecalis 27; assay: microbe, parasite or virus in culture; parameters: CLSI broth microdilution MIC in MHB-II; settings: Enterococcus faecalis, 27, 18 h, read-out: MIC
T11 construct: 27
Procedure: as §1

Enterococcus faecium 10 = test system: T12, Enterococcus faecium 10; assay: microbe, parasite or virus in culture; parameters: CLSI broth microdilution MIC in MHB-II; settings: Enterococcus faecium, 10, 18 h, read-out: MIC
T12 construct: 10
Procedure: as §1

Enterococcus faecium 1 = assay: microbe, parasite or virus in culture; parameters: CLSI broth microdilution MIC in MHB-II; settings: Enterococcus faecium, 1, 18 h, read-out: MIC
Procedure: as §1

Enterococcus faecium 9 = assay: microbe, parasite or virus in culture; parameters: CLSI broth microdilution MIC in MHB-II; settings: Enterococcus faecium, 9, 18 h, read-out: MIC
Procedure: as §1

[5] = test system: T13, Staphylococcus aureus #1958; assay: microbe, parasite or virus in culture; parameters: CLSI broth microdilution MIC in MHB-II; settings: Staphylococcus aureus, 18 h, read-out: MIC
T13 construct: #1958
Procedure: as §1

[6] = test system: T14, Staphylococcus aureus #2071; assay: microbe, parasite or virus in culture; parameters: CLSI broth microdilution MIC in MHB-II; settings: Staphylococcus aureus, 18 h, read-out: MIC
T14 construct: #2071
Procedure: as §1

[7] = test system: T15, Staphylococcus aureus #2110; assay: microbe, parasite or virus in culture; parameters: CLSI broth microdilution MIC in MHB-II; settings: Staphylococcus aureus, 18 h, read-out: MIC
T15 construct: #2110
Procedure: as §1

[8] = test system: T16, Staphylococcus aureus #2310; assay: microbe, parasite or virus in culture; parameters: CLSI broth microdilution MIC in MHB-II; settings: Staphylococcus aureus, 18 h, read-out: MIC
T16 construct: #2310
Procedure: as §1

[9] = test system: T17, Staphylococcus aureus #2933; assay: microbe, parasite or virus in culture; parameters: CLSI broth microdilution MIC in MHB-II; settings: Staphylococcus aureus, 18 h, read-out: MIC
T17 construct: #2933
Procedure: as §1

[10] = test system: T18, Staphylococcus aureus #2934; assay: microbe, parasite or virus in culture; parameters: CLSI broth microdilution MIC in MHB-II; settings: Staphylococcus aureus, 18 h, read-out: MIC
T18 construct: #2934
Procedure: as §1

[11] = test system: T19, Staphylococcus aureus #2935; assay: microbe, parasite or virus in culture; parameters: CLSI broth microdilution MIC in MHB-II; settings: Staphylococcus aureus, 18 h, read-out: MIC
T19 construct: #2935
Procedure: as §1

MraYSA (S. aureus MraY) = MraYSA (S. aureus MraY) (Staphylococcus aureus, UniProt Q2FZ93); assay: fluorescence assay of dansylated lipid I formation; type: biochemical
in vitro = assay: in vitro; parameters: WST-8 cell viability assay in HepG2 cells; settings: human, hepg2 cells; read-out: IC50
Procedure: Cells were regularly passed to maintain exponential growth. HepG2 cells were sowed by 1.0 × 10^4 cells for each well in 96-well plate and cultured at 37 °C under 5% CO2 in air for 24 h. The cells were treated with a solution of test compounds in DMSO at various concentration and incubated at 37 °C under 5% CO2 in air for 24 h. After that, the WST-8 (Dojindo) cell proliferation assay was used. Cell viability was indicated as a percentage of the negative control (cells treated with DMSO only) and that value was fixed at 100%.

Sequence of MraYSA (S. aureus MraY) (Q2FZ93 whole entry): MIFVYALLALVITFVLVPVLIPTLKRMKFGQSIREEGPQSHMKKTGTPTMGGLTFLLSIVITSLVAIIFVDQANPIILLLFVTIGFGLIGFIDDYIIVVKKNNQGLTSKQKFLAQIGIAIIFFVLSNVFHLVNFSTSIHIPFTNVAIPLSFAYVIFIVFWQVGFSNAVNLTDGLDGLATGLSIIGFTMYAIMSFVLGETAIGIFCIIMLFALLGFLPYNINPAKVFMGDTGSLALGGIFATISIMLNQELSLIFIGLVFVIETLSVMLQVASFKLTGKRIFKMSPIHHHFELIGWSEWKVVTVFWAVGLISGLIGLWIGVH

Row | Structure (SMILES) | MIC (Enterococcus faecalis 21) [µg/mL] | MIC (Enterococcus faecalis 22) [µg/mL] | MIC (Enterococcus faecalis 24) [µg/mL] | MIC (Enterococcus faecalis 25) [µg/mL] | MIC (Enterococcus faecalis 27) [µg/mL] | MIC (Enterococcus faecium 10) [µg/mL] | MIC (Enterococcus faecium 1) [µg/mL] | MIC (Enterococcus faecium 9) [µg/mL] | MIC [5] [µg/mL] | MIC [6] [µg/mL] | MIC [7] [µg/mL] | MIC [8] [µg/mL] | MIC [9] [µg/mL] | MIC [10] [µg/mL] | MIC [11] [µg/mL] | IC50 (MraYSA (S. aureus MraY)) [µM] | CC50 at 24 h (in vitro) [µM] | also measured
1 | CC1(C)S[C@@H]2[C@H](NC(=O)[C@H](N)c3ccccc3)C(=O)N2[C@H]1C(=O)O [ampicillin] | 1 (≈ 2.86 µM) | 1 (≈ 2.86 µM) | 0.5 (≈ 1.43 µM) | 1 (≈ 2.86 µM) | 1 (≈ 2.86 µM) | > 128 | > 128 | > 128 | 32 (≈ 91.6 µM) | 32 (≈ 91.6 µM) | 16 (≈ 45.8 µM) | 32 (≈ 91.6 µM) | 32 (≈ 91.6 µM) | 16 (≈ 45.8 µM) | 16 (≈ 45.8 µM) |  |  | MIC ([1]; read-out: ampicillin MIC): 1 µg/mL (≈ 2.86 µM); MIC (E. faecium ATCC 35667; read-out: ampicillin MIC): 1 µg/mL (≈ 2.86 µM); MIC ([2]; read-out: ampicillin MIC): 128 µg/mL (≈ 366 µM); MIC ([3]; read-out: ampicillin MIC): 128 µg/mL (≈ 366 µM); MIC (S. aureus ATCC 29213; read-out: ampicillin MIC): 1 µg/mL (≈ 2.86 µM); MIC ([4]; read-out: ampicillin MIC): 4 µg/mL (≈ 11.4 µM)
2 | CCCCCCCCCCCCCCCC(=O)N[C@@H](CCCNC(=N)N)C(=O)NCc1ccc(CN[C@H](C(=O)O)[C@H](O[C@@H]2O[C@H](CN)[C@@H](O)[C@H]2O)[C@H]2O[C@@H](n3ccc(=O)[nH]c3=O)[C@H](O)[C@@H]2O)cc1 [compound 3, analogue 3] | 0.5 (≈ 0.52 µM) | 0.13 (≈ 0.135 µM) | 0.13 (≈ 0.135 µM) | 0.13 (≈ 0.135 µM) | 0.25 (≈ 0.26 µM) | 1 (≈ 1.04 µM) | 1 (≈ 1.04 µM) | 0.5 (≈ 0.52 µM) | 2 (≈ 2.08 µM) |  | 2 (≈ 2.08 µM) | 2 (≈ 2.08 µM) | 1 (≈ 1.04 µM) | 1 (≈ 1.04 µM) |  | 0.004 | 18 | MIC ([1]; read-out: 3 MIC): 0.5 µg/mL (≈ 0.52 µM); MIC (E. faecium ATCC 35667; read-out: 3 MIC): 1 µg/mL (≈ 1.04 µM); MIC ([2]; read-out: 3 MIC): 0.5 µg/mL (≈ 0.52 µM); MIC ([3]; read-out: 3 MIC): 2 µg/mL (≈ 2.08 µM); MIC (S. aureus ATCC 29213; read-out: 3 MIC): 1 µg/mL (≈ 1.04 µM); MIC ([4]; read-out: 3 MIC): 1 µg/mL (≈ 1.04 µM)
3 | CCCCCCCCCCCCCCCC(=O)N[C@@H](CCCCN)C(=O)Nc1cccc(CN[C@H](C(=O)O)[C@H](O[C@@H]2O[C@H](CN)[C@@H](O)[C@H]2O)[C@H]2O[C@@H](n3ccc(=O)[nH]c3=O)[C@H](O)[C@@H]2O)c1 [compound 6, analogue 6] | 0.25 (≈ 0.272 µM) | 0.5 (≈ 0.543 µM) | 0.5 (≈ 0.543 µM) | 0.5 (≈ 0.543 µM) | 0.5 (≈ 0.543 µM) | 1 (≈ 1.09 µM) | 1 (≈ 1.09 µM) | 1 (≈ 1.09 µM) | 1 (≈ 1.09 µM) | 64 (≈ 69.6 µM) | 2 (≈ 2.17 µM) |  | 0.5 (≈ 0.543 µM) | 0.5 (≈ 0.543 µM) | 1 (≈ 1.09 µM) | 0.0037 | 16 | MIC ([1]; read-out: 6 MIC): 0.5 µg/mL (≈ 0.543 µM); MIC (E. faecium ATCC 35667; read-out: 6 MIC): 0.5 µg/mL (≈ 0.543 µM); MIC ([2]; read-out: 6 MIC): 1 µg/mL (≈ 1.09 µM); MIC ([3]; read-out: 6 MIC): 2 µg/mL (≈ 2.17 µM); MIC (S. aureus ATCC 29213; read-out: 6 MIC): 1 µg/mL (≈ 1.09 µM); MIC ([4]; read-out: 6 MIC): 1 µg/mL (≈ 1.09 µM)
